One assay deals with TAG. As to the kind of experiment: TAG lipid buildup inhibition with viability readout – cell-based, panel, Nile Red and DAPI fluorescence, H9c2, dose response (AID 651630).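 Also: cells exposed to compound overnight before fixation and staining.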 Particulars: H9c2 cells, Nile Red TAG fluorescence, oleic acid.
A further assay relates to DAPI. The assay is described as above. The note with it: H9c2 cells, DAPI nuclear fluorescence (cytotoxicity counter-readout), oleic acid.

Active and inactive are the calls of the source.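 The calls were made as follows: active = lipid-stain IC50 at or below a set limit, with nuclear-stain toxicity IC50 at least five times higher; inactive = the rest.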

The IC50 is the concentration that inhibits the measured activity by half. `CCCCOc1ccc(CSC2=NCCN2)cc1[N+](=O)[O-]`: the IC50 with TAG (mean of runs) is > 25 µM (inactive); with TAG (run 1), greater than 25 µM; in the assay with TAG (run 2), greater than 25 µM. Further, the results for the IC50 cytotoxicity (DAPI nuclear signal decrease) in the assay on DAPI (mean of runs), with DAPI (run 1) and in the assay with DAPI (run 2) were > 25 µM (inactive), greater than 25 µM and greater than 25 µM, respectively.

`CC1(C(=O)NCc2cccs2)Cc2c(-c3ccc4c(c3)OCO4)ccnc2O1` (centres undefined): the IC50 was > 25 µM (inactive) with TAG (mean of runs), greater than 25 µM in the assay with TAG (run 1) and greater than 25 µM in the assay on TAG (run 2). In addition, the IC50 cytotoxicity (DAPI nuclear signal decrease) with DAPI (mean of runs) was > 25 µM (inactive); in the assay on DAPI (run 1) it was greater than 25 µM; with DAPI (run 2), greater than 25 µM.

With `C=CCN1C(=O)/C(=C2\SC(N3CCOCC3)=NC2=O)c2cc(Br)ccc21`, the IC50 in the assay on TAG (mean of runs) is 22.4 µM (inactive); with TAG (run 1), 22.5 µM; in the assay on TAG (run 2), 22.4 µM. Besides, the IC50 cytotoxicity (DAPI nuclear signal decrease) was > 25 µM (inactive) with DAPI (mean of runs), greater than 25 µM in the assay on DAPI (run 1) and greater than 25 µM with DAPI (run 2).

On to `Cc1cccc2c(N=Nc3ccc(S(=O)(=O)Nc4ccc(Cl)cc4)cc3[N+](=O)[O-])c(O)[nH]c12`, for which the half-maximal inhibitory concentration (IC50) was 12.2 µM in the assay on TAG (mean of runs), 16.5 µM with TAG (run 1) and 7.89 µM with TAG (run 2). For the same compound, the IC50 cytotoxicity (DAPI nuclear signal decrease) in the assay on DAPI (mean of runs) was > 25 µM (inactive); in the assay on DAPI (run 1), greater than 25 µM; in the assay with DAPI (run 2), greater than 25 µM.

As to `COc1ccc(-c2cc(C(=O)Nc3cc(OC)cc(C(=O)Nc4cccc(C(F)(F)F)c4)c3)[nH]n2)cc1`, the results for the half-inhibitory concentration (IC50) in the assay with TAG (run 1) and with TAG (run 2) were greater than 25 µM and 4.64 µM, respectively. Besides, the IC50 cytotoxicity (DAPI nuclear signal decrease) in the assay with DAPI (mean of runs) was > 25 µM (inactive); in the assay on DAPI (run 1) it was greater than 25 µM; in the assay with DAPI (run 2), greater than 25 µM.

For the compound `Cc1ccc2c(=O)n3c(nc2c1)C(Cc1ccc(O)cc1)NC(=O)c1cc2ccccc2cc1-3` (centres undefined), the IC50 with TAG (mean of runs) is > 25 µM (inactive); in the assay on TAG (run 1), greater than 25 µM; in the assay with TAG (run 2), greater than 25 µM. Further, the figures for the IC50 cytotoxicity (DAPI nuclear signal decrease) in the assay on DAPI (mean of runs), with DAPI (run 1) and with DAPI (run 2) were > 25 µM (inactive), greater than 25 µM and greater than 25 µM, respectively.

Turning to `O=[N+]([O-])c1cc(S(=O)(=O)Nc2cccc(Cl)c2)ccc1N/N=C/c1ccc(N2CCOCC2)cc1`, the IC50 in the assay with TAG (mean of runs) is 13.6 µM; in the assay with TAG (run 1), 12.5 µM; in the assay with TAG (run 2), 14.7 µM. Besides, the IC50 cytotoxicity (DAPI nuclear signal decrease) in the assay on DAPI (mean of runs) was > 25 µM (inactive); in the assay with DAPI (run 1) it was greater than 25 µM; in the assay with DAPI (run 2) it was greater than 25 µM.

Consider `O=C1NC(Cc2ccc(O)cc2)c2nc3ccc(Cl)cc3c(=O)n2-c2cc3ccccc3cc21` (centres undefined), for which the IC50 with TAG (mean of runs) is > 25 µM (inactive); with TAG (run 1), greater than 25 µM; in the assay with TAG (run 2), greater than 25 µM. The IC50 cytotoxicity (DAPI nuclear signal decrease) was > 25 µM (inactive) in the assay on DAPI (mean of runs), greater than 25 µM in the assay on DAPI (run 1) and greater than 25 µM in the assay with DAPI (run 2).

Turning to `COC(=O)c1cc(NC(=O)c2c(Cl)nc3sccn23)cc(C(=O)OC)c1`, the IC50 in the assay on TAG (mean of runs) is > 25 µM (inactive); with TAG (run 1) it was greater than 25 µM; in the assay on TAG (run 2), greater than 25 µM. The IC50 cytotoxicity (DAPI nuclear signal decrease) with DAPI (mean of runs) is > 25 µM (inactive); with DAPI (run 1), greater than 25 µM; in the assay on DAPI (run 2), greater than 25 µM.

As for `Nc1ncnc2c1ncn2C1C=C(CO)C(O)C1O` (centres undefined), the IC50 is 12.5 µM with TAG (mean of runs), 11.4 µM in the assay on TAG (run 1) and 13.7 µM in the assay with TAG (run 2). For the same compound, the IC50 cytotoxicity (DAPI nuclear signal decrease) in the assay on DAPI (mean of runs) is > 25 µM (inactive); in the assay with DAPI (run 1), greater than 25 µM; in the assay with DAPI (run 2) it was greater than 25 µM.

Values taken from PubChem BioAssay AID651630 (Sanford-Burnham Center for Chemical Genomics, 2012).
